From ChEMBL document CHEMBL1201862, “PubChem BioAssay data set” (2004)
Structures can show the parent of a compound that is named as a salt. Calls of active or inactive are those of the source.

What was measured:
Aminopeptidase N = molecular target: T1, Aminopeptidase N (Plasmodium falciparum FcB1/Columbia, UniProt O96935); test: P. falciparum M1AAP inhibitors, biochemical, fluorogenic H-Leu-NHMec substrate, 1536-well (AID 1445); parameters: species or system Plasmodium falciparum 3D7, 3D7
T1 sequence (O96935 whole entry): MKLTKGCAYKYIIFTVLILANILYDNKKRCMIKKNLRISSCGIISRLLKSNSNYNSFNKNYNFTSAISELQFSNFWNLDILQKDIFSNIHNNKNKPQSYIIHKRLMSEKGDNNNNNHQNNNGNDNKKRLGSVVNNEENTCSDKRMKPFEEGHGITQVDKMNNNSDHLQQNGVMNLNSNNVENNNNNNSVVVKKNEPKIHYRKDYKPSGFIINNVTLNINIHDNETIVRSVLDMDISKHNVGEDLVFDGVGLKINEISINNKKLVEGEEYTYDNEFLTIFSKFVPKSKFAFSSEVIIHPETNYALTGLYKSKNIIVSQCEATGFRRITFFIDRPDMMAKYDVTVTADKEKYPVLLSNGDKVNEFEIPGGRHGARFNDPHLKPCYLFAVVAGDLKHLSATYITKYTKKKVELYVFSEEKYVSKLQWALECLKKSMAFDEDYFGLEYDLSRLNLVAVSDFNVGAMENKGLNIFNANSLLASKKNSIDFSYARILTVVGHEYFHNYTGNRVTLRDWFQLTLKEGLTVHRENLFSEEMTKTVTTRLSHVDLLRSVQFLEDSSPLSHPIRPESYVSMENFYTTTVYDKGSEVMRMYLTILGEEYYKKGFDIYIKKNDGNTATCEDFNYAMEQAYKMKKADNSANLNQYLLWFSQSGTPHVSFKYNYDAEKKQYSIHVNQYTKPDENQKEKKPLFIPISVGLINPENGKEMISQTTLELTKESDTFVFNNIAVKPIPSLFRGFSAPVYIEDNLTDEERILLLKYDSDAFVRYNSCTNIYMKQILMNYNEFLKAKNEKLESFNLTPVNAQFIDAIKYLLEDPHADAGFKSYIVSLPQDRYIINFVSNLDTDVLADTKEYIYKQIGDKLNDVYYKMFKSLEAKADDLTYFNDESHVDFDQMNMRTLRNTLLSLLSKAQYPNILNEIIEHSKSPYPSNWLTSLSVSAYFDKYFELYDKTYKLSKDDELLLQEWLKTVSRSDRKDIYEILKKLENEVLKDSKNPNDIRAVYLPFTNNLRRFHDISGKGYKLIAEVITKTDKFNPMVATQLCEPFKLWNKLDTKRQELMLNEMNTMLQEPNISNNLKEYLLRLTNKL

[1] = molecular target: T2, Replicative DNA helicase DnaB (Mycobacterium tuberculosis, UniProt P9WMR3); test: DnaB intein splicing inhibitors, dose response, biochemical, cell-free fluorescence (AID 449749); type: functional
T2 sequence (P9WMR3 whole entry): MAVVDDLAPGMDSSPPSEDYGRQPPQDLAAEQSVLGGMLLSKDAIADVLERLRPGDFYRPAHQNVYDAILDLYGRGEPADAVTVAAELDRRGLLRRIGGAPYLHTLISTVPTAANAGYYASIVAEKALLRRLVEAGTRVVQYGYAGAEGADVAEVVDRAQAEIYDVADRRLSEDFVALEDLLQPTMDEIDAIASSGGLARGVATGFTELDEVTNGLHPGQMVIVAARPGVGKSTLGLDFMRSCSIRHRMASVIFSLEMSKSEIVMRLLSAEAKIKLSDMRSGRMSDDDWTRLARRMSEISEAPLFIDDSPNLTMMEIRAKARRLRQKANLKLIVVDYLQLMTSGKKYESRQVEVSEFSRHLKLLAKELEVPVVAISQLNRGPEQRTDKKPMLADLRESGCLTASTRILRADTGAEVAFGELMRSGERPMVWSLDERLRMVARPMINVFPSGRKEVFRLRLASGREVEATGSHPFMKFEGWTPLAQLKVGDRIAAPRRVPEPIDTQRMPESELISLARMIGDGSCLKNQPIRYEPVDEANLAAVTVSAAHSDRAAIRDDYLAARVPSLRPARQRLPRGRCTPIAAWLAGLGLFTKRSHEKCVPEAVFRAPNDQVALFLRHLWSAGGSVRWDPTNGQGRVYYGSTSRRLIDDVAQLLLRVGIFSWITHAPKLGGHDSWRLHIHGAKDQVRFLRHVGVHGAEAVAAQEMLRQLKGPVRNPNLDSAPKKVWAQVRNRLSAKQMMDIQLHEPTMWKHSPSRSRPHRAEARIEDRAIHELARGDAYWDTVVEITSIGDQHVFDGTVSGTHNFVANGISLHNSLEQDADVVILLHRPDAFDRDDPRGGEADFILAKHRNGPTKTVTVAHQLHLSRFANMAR

Protein RecA = molecular target: T3, Protein RecA (Mycobacterium tuberculosis, UniProt P9WHJ3); test: Fluorescence Cell-Free Homogeneous Dose Retest to Identify Inhibitors of RecA-Intein Splicing Activity. [Related pubchem assays (depositor defined):AID2097, AID2223, AID489010, AID492950]; type: functional
T3 sequence (P9WHJ3 whole entry): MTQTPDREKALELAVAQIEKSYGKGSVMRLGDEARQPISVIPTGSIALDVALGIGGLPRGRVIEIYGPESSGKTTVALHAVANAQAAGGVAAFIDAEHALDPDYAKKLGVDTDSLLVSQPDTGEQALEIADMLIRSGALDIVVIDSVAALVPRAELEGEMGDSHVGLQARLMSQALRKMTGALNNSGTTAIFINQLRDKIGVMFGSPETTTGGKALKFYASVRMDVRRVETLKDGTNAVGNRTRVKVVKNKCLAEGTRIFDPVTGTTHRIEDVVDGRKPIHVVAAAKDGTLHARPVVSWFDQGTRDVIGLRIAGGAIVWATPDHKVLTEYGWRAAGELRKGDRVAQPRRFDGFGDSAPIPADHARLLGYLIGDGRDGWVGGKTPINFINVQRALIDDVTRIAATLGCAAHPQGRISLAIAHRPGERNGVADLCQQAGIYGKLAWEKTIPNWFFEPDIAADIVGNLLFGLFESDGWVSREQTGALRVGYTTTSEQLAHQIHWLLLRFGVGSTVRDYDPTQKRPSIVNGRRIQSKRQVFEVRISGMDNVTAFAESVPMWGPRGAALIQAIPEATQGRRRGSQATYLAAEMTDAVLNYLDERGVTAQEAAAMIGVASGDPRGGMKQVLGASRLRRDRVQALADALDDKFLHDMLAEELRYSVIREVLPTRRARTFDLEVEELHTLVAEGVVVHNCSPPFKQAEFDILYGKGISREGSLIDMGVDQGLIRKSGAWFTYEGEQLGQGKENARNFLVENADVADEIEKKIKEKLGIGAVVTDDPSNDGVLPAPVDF

[2] = AlphaScreen signal interference compounds, dose response, artefact control for ARNT-TACC3 interaction inhibitor project, biochemical, luminescence, cherry-pick (AID 651705); type: functional;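 further: AlphaScreen bead proximity signal that flags compounds interfering with the detection technology; potency reflects signal decrease which marks the compound as an assay artifact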
[3] = HEp-2 cell cytotoxicity, dose response, cytotoxicity control for RSV inhibitor project, HTS (AID 2410); type: functional; conditions: human respiratory syncytial virus
[4] = molecular target: T4, Apoptotic protease-activating factor 1 (Homo sapiens, UniProt O14727); type: functional
T4 sequence (O14727 whole entry): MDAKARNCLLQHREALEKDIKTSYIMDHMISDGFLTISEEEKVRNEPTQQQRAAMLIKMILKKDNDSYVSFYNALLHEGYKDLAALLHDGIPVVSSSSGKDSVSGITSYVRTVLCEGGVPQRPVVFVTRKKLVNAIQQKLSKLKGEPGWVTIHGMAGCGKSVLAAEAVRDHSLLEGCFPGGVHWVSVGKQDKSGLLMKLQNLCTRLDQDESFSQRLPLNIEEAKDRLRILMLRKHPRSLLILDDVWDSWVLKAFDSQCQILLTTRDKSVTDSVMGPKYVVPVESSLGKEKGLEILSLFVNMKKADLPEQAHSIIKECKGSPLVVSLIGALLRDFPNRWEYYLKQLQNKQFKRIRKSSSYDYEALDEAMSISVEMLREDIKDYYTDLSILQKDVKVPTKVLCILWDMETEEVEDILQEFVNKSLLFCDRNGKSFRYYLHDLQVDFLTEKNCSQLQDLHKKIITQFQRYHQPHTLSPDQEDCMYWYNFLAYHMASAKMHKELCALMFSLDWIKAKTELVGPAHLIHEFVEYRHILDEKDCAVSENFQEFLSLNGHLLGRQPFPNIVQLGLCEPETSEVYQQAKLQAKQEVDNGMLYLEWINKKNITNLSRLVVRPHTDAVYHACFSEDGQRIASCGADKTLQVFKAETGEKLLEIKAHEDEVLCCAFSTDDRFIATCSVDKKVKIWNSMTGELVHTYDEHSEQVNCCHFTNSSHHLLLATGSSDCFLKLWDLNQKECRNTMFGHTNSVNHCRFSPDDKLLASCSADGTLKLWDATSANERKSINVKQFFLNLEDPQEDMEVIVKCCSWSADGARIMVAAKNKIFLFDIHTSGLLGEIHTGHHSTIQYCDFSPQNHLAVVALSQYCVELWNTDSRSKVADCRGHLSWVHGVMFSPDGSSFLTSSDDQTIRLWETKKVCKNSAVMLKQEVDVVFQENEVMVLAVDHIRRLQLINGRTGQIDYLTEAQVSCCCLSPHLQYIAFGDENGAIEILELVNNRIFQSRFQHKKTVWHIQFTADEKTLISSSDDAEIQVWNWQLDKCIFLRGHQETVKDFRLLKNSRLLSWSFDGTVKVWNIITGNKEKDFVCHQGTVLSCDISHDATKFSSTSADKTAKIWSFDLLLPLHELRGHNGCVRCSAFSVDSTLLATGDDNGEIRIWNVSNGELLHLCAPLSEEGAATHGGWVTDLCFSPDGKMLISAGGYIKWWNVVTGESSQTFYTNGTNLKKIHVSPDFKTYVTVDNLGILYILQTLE

Protein Wnt-3a = Protein Wnt-3a (Mus musculus, UniProt P27467); test: Wnt3a-driven reporter signaling inhibition, dose response, selectivity assay for Gli-SUFU antagonist project, Wnt-LIGHT cells, luminescence (AID 651570); type: functional; conditions: read-out: IC50_Mean;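 further: Wnt-LIGHT reporter cells stimulated with conditioned medium from Wnt3a-producing cells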
[5] = growth suppression of PTEN-null colon cells, dose response, cell-based, HCT116 PTEN knockout (AID 1047); type: functional;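 further: HCT116 colon tumor cells with PTEN knocked out; cells exposed to compound for 60 hours before readout; potency for loss of cell viability measured by luminescence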
[6] = growth suppression of beta-catenin-knockout colon cells, dose response, cell-based, HCT116, human colon tumor (AID 1045); type: functional;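 further: HCT116 colon tumor cells with beta catenin knocked out; cells exposed to compound for 60 hours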
[7] = Luminescence Cell-Based Dose Retest to Confirm Inhibitors of Cancer Stem Cells. [Related pubchem assays (depositor defined):AID2717, AID2721]; type: functional; conditions: Homo sapiens
[8] = molecular target: Heat shock protein HSP 90-alpha (Homo sapiens, UniProt P07900); type: functional, organism-based
INS1 = test: beta cell apoptosis inhibitors, cytokine rescue, dose response, luminescence, retest (AID 449756); type: functional, cell-based; conditions: Rattus norvegicus;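 further: cell death triggered by IL-1 beta plus TNF-alpha plus IFN-gamma mixture; protective hits raise ATP signal compared with cytokine alone wells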
[9] = molecular target: T5, Hepatocyte nuclear factor 4-alpha (Homo sapiens, UniProt P41235); type: functional, cell-based;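 further: biochemical luminescence-based dose-response counterscreen measuring inhibition of HNF4 dimerization, run alongside a screen for blockers of ABHD5–perilipin-5 interaction; split luciferase complementation of HNF4 fusion proteins in cell lysate measuring dimerization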
T5 sequence (P41235 whole entry): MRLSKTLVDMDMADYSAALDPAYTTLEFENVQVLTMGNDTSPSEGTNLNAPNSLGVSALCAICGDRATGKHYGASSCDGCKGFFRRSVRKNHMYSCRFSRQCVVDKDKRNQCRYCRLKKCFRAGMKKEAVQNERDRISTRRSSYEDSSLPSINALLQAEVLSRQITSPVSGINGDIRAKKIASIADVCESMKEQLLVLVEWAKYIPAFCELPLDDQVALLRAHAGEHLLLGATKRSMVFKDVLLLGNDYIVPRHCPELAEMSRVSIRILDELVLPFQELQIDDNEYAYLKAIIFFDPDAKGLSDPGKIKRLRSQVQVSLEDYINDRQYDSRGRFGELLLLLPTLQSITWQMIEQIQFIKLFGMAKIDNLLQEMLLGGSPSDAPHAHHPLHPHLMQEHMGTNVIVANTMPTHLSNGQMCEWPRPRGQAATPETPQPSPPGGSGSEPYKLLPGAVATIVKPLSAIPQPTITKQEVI

[10] = Shn3 3'UTR reporter inhibitors, dose response, cell-based, Clone20 osteoblasts, firefly luciferase, cherry-picked (AID 624132); type: functional;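 further: firefly luciferase luminescence from reporter carrying the Shn3 3'UTR in osteoblasts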
[11] = HepG2 cell cytotoxicity, dose response, cytotoxicity control for Shn3 inhibitor project, CellTiter-Glo, cherry-picked (AID 624134); type: functional, cell-based
[12] = test system: Streptococcus sp. 'group A'; test: growth inhibition of control SK(-) GAS strain, dose response, counter-screen for streptokinase expression inhibitor project, luminescence, kanamycin, BacTiterGlo, confirmation (AID 1900); type: functional, organism-based
[13] = inhibitors of intracellular T. cruzi replication, confirmation, NIH3T3 host cells, beta-gal luminescence (AID 2044); type: functional, cell-based;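 further: intracellular parasites grown in NIH/3T3 mouse fibroblasts as host cells; luminescent beta-galactosidase reporter signal from transgenic T. cruzi replicating inside host cells; inhibitors lower the luminescence signal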
[14] = cytotoxicity toward NIH3T3 fibroblasts, dose response, counter-screen, cell-based, ATP luminescence, mouse fibroblasts (AID 2010); type: functional;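 further: cells exposed to compound for about 90 hours before reading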
Streptococcus = test: Group A Streptococcus viability loss, dose response, counter-screen for streptokinase expression inhibitor project, luminescence, BacTiterGlo (AID 1915); type: functional, organism-based;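 further: potency for reduction of bacterial viability or growth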

Sequence of Protein Wnt-3a (P27467 whole entry): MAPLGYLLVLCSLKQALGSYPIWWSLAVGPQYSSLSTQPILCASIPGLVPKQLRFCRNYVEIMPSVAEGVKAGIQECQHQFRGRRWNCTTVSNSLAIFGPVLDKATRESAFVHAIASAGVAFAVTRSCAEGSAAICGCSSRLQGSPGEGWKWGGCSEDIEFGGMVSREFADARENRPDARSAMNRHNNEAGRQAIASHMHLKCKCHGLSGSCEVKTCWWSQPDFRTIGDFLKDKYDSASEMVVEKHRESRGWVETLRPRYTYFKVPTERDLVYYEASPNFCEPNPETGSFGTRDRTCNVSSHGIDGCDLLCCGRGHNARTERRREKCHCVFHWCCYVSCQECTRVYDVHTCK

With `O=C1NC(=O)C(=NNc2cc([N+](=O)[O-])ccc2O)C(=O)N1` the IC50 (Aminopeptidase N) was 11.4 µM (active), the AC50 [1] was 4.84 µM (active) and the EC50 (Protein RecA) was 3.79 µM (active). For the same molecule, the AC50 [2] was 111 µM (active).
In the case of `O=S(=O)(c1ccc(Br)cc1)N1CCN(c2ccc3nnc(-c4ccccc4)n3n2)CC1`, the CC50 [3] is reported as 32.9 µM (active) and the IC50 [4] is reported as 8.5 µM (active).
For `CCOc1ccc(NC(=S)NNc2ccnc3cc(Cl)ccc23)cc1`, the IC50 (Protein Wnt-3a) was 11.4 µM (active).
With `O=[N+]([O-])/C=C/c1cn(Cc2ccc(F)cc2)c2ccccc12` the EC50 [5] was 15.2 µM (active), the EC50 [6] was 16.4 µM (active) and the AC50 [7] was 3.2 µM (active). The AC50 [8] was 8.8 µM (active), the AC50 (INS1) was 16.9 µM (active) and the IC50 [9] was 4.49 µM (active).
In the case of `C[C@H](NC(=O)c1ccco1)C(=O)Nc1nc(-c2ccccn2)cs1`, the AC50 [2] is reported as 90.1 µM (active).
In the case of `COc1ccc(-c2noc(CCCCC(=O)N3CCN(c4cc(C)ccc4C)CC3)n2)cc1`, the AC50 [10] is reported as 1.75 µM (active), the AC50 [11] is reported as 2.2 µM (active) and the IC50 (Protein Wnt-3a) is reported as 2.84 µM (active).
For `O=C(C[C@@H]1C/C=C\C[C@@H](NC(=O)OCC2c3ccccc3-c3ccccc32)C(=O)OC[C@@H](Cc2ccccc2)NC1=O)NCCO`, the IC50 (Protein Wnt-3a) was 13.5 µM (active).
For `C=C[C@]1(C)C[C@@H](OC(=O)CSCCN(CC)CC)[C@]2(C)[C@H](C)CC[C@]3(CCC(=O)[C@H]32)[C@@H](C)[C@@H]1O` [TIAMULIN FUMARATE], the EC50 [12] was < 0.06 µM (active), the EC50 [13] was 1.75 µM (active) and the EC50 [14] was > 60 µM (not active). The EC50 (Streptococcus) was < 0.06 µM (active) and the IC50 [9] was 39.8 µM (inactive).
